From US5140023A, “Azatetracycle compounds” (G. D. Searle & Co., priority 1991, dated 1992)
Where a name gives a salt, the structure may show the parent alone.

How the values were obtained:
5-HT3 = molecular target: T1, 5-HT3 (Canis lupus familiaris, UniProt Q1HHV2); assay: Antiemetic activity against cisplatin-induced emesis in beagle dogs; assay type: in vivo; conditions: for ED50: dog, iv, i.v. 30 min before and 2 h after cisplatin 3 mg/kg i.v., emetic episodes counted 5 h, read-out: ID50 (50% inhibition of the number of emetic episodes)
T1 construct: from tissue; host or cells: living beagle dogs (in vivo, i.v. dosing); endogenous receptor
T1 sequence (Q1HHV2 24-483): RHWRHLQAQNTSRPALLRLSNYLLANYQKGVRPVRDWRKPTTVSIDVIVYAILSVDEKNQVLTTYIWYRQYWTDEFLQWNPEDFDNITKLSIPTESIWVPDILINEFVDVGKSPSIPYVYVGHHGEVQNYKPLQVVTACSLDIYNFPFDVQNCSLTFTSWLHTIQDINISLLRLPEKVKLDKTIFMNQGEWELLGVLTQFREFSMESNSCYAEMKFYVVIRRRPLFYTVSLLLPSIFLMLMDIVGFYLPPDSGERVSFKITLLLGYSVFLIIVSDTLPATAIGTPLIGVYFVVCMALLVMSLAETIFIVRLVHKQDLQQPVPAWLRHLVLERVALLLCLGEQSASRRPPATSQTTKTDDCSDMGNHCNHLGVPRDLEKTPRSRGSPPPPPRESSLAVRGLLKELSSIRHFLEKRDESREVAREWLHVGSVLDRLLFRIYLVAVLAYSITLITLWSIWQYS
Description: 5-HT3 antagonism can be determined in a model of emesis induced by the chemotherapeutic agent cisplatin as described herein.
Antiemetic activity of test compound against cisplatin was determined in beagle dogs. Dogs are pretreated I.V. with a test compound dissolved in DMSO thirty minutes before administration of cisplatin 3 mg/kg.i.v. with a second dose of compounds given i.v. two hours after cisplatin administration. Emetic episodes are counted for 5 hours following cisplatin administration. The latency for first emesis and the number of emetic episodes for test compounds are compared with results for control treatment (vehicle).
Per cent inhibition of emesis for each animal is determined by the following formula: [formula] A mean inhibitory dose (ID50) which results in 50% inhibition of the number of emetic episodes is determined.

gastric emptying = assay: Rat gastric emptying of a test meal (prokinetic activity); assay type: in vivo, rat (male Charles River, Crl: COBS, CD (SD) BR); conditions: 30 min before test meal, rats sacrificed 60 min after meal
From the text: Alternatively, the compounds of formula I wherein p is 1, A is NH and B is NH or 0 can be prepared by treating ArNH2 (37) with compounds of formula 38 (an isocyanate or activated carbonyl derivative of azatetracycles 11, 26, 32 or 35). L1 is as described above. […] Prokinetic activity of a compound can be determined by measuring the enhancement of gastric emptying of a meal in a rat model to which the compound has been administered. This method for determining prokinetic activity of a compound has been described by Droppleman, et al, J. Pharmacol. and Methods 4: 227-230 (1980).
A test meal for measuring gastric emptying in rats was prepared. Ten grams of methylcellulose (2% solution=15 centipoises; Aldrich Chemical Company, Milwaukee, Wis.) was added to 200ml of cold water and mixed at 20,000 rpm in a Waring blender to insure dispersion and hydration of the methylcellulose. In addition, two beef bouillon cubes (Wyler's, Columbus, Ohio) dissolved in 100ml of warm water was added to the mixture, followed by 16g of casein (Hammersten, Schwartz/Mann, Orangeburg, N.Y.), 8g of powdered confectioners sugar and 8g of cornstarch. The ingredients were mixed for two minutes at 20,000 rpm and the resultant test meal was refrigerated for 48 hours to allow trapped air to escape. Male Charles River Rats, Crl: COBS, CD (SD) BR Strain, 180-200g body weight, were used in groups of six animals. The animals were food deprived for 24 hours prior to the experiment with access to water ad libitum. The compounds to be evaluated were prepared in a 0.5% aqueous methylcellulose solution. If insoluble, the mixture was homogenized for two minutes at 5500 rpm using a Try R-Stir-R. The compounds were injected intraperitoneally at a volume of 5 ml/kg, 30 minutes before the test meal, (3.0ml/rat i.g.). Control animals received only the vehicle. Sixty minutes after the test meal, the rats were sacrificed by cervical dislocation. The stomachs were removed intact and weighed. The stomachs were kept opened, gently rinsed with tap water, blotted dry with paper towelling, and the empty stomach weighed. The difference between the weight of the full and empty stomach is indicative of the amount of meal remaining in the stomach. The amount of meal remaining in the stomach was subtracted from the weight of 3ml of the test meal to determine the amount of food emptied from the stomach during the test. Weight of the test meal was determined by weighing three samples (3ml) at the beginning and three samples at the end of each experiment and calculating the mean. The mean and standard error of the amount of meal emptied were calculated.
The results of following the protocol and comparing representative compounds herein to known prokinetic agents, metoclopramide and cisapride, are shown in Table III.

| SMILES | ED50 (5-HT3) [mg/kg] | % increase in gastric emptying (gastric emptying; 1.0 mg/kg ip) [%] | % increase in gastric emptying (gastric emptying; 3.0 mg/kg ip) [%] | % increase in gastric emptying (gastric emptying; 10.0 mg/kg ip) [%] | other results |
| --- | --- | --- | --- | --- | --- |
| COc1cc(N)c(Cl)cc1C(=O)N[C@H]1[C@H]2C[C@@H]3CN(C2)C[C@@H]31 (relative stereo) [Example 12, 2-methoxy-4-amino-5-chloro-N-(hexahydro-1H-2,5B-methano-3aα, 6aα-cyclopenta[c]pyrrol-4α-yl)benzamidehydrochloride] | 0.03 | 45.3 | – | – | % increase in gastric emptying (gastric emptying; 0.001 mg/kg ip): -5.8%; % increase in gastric emptying (gastric emptying; 0.01 mg/kg ip): 2.0%; % increase in gastric emptying (gastric emptying; 0.03 mg/kg ip): 16.4%; % increase in gastric emptying (gastric emptying; 0.1 mg/kg ip): 31.3%; % increase in gastric emptying (gastric emptying; 0.3 mg/kg ip): 32.1% |
| Cn1nc(C(=O)N[C@H]2[C@H]3C[C@@H]4CN(C3)C[C@@H]42)c2ccccc21 (relative stereo) [Example 27, (±)-N-(hexahydro-1H-2,5β-methano-3aα,6aα-cyclopenta[c]pyrrol-4α-yl)-1-methyl-1H-indazole-3-carboxamide, hydrochloride] | 0.1 | – | – | – | % inhibition (of emesis) (5-HT3; cisplatin 3 mg/kg i.v., printed in parentheses under 0.10 mg/kg iv): 72% |
| COc1cc(N)c(Cl)cc1C(=O)NC1CCN2CCCC1C2 (centres unmarked) [BRL-24924] | 0.1 | 29.8 | 34.2 | 35.2 | – |
| COc1cc(N)c(Cl)cc1C(=O)NC1CCN(CCCOc2ccc(F)cc2)CC1OC (centres unmarked) [Cisapride, cisapride] | 0.6 | 9.8 | 15.4 | 25.0 | – |
| CN1[C@@H]2CC[C@H]1C[C@@H](OC(=O)c1c[nH]c3ccccc13)C2 [ICS 205-930] | 0.01 | – | – | – | – |
| CCN(CC)CCNC(=O)c1cc(Cl)c(N)cc1OC [METOCLOPRAMIDE, metoclopramide] | – | 2.6 | 11.2 | 34.1 | – |
| COc1cc(N)c(Cl)cc1C(=O)NC1CN2CCC1CC2 (centres unmarked) [ZACOPRIDE] | – | 11.8 | 9.3 | 18.5 | % increase in gastric emptying (gastric emptying; 0.3 mg/kg ip): 1.4%; % increase in gastric emptying (gastric emptying; 30.0 mg/kg ip): 6.3% |
